US20200237731A1, “USE OF CLOXACILLIN TO INHIBIT/PREVENT BIOFILM FORMATION” (priority 2017, published 2020)
≈ marks a conversion by molar mass, not a printed value. Where “and” joins values, the source holds several entries; their conditions need not be identical. Equal values may be shown once. Entries after “also recorded” stand apart in the source; their conditions may differ. Read-outs that look alike come from different tables or passages of the source.

How the values were obtained:
Format in all cases: cell-based
[1] = tested on: Staphylococcus aureus strains S14 and S39; experiment: Confocal microscopy of bacterial adhesion to polystyrene well bottom; settings: for effect on adhesion / biofilm formation / effect on bacterial adhesion: 4 h; for effect on bacterial adhesion: strain S39
Procedure: Six-well polystyrene microplates of the same nature and with exactly the same properties as the microplates used in Example 1 (Antibiofilmogram®), i.e. Costar 6-well microplates, product code 3736. The 6-well microplates were used to obtain a sufficient surface area of biofilm formation for confocal microscopy observation. The concentrations corresponding to the MIC and MICb of the strains were tested. At the same time, controls in the absence of antibiotics, strains S14 and S39 were performed. After incubation for 4 h at 37° C. (similar to the conditions used in Example 1 (Antibiofilmogram®), the bottoms of the microplates were cut out and assembled with a glass slide in order to be able to proceed to the observation under confocal microscopy. The observation conditions were as follows: Objective: ×40; Zoom: ×2; Format: 2048×2048 pixels; Laser power; Zmax and Zmin: number of images in the stack; Size between each image: 0.42 μm. “Live/Dead” staining was performed. SYTO9 stains live (and dead) bacteria, while propidium iodide specifically stains dead bacteria. The result was obtained with an analysis of 2880 images (“Slices”).
The percentage of biofilm covering the bottom surface of the well bottom as a percentage of surface cover is shown on the vertical axis. In FIG. 2A, the density of S14 bacteria adhered to the bottom of the wells was shown and analyzed. […] In particular, from 10% to more than 20% of the bottom surface of the well was covered after 4 h of incubation, which is excessive to consider a use in a therapeutic treatment at this dose.

[2] = tested on: clinical strains of Staphylococcus aureus; experiment: MIC of cloxacillin by growth (absorbance) in 96-well microplates, brain heart infusion (BHI) medium
Procedure: (§1) The determination of each minimum inhibitory concentration (MIC) of cloxacillin was measured conventionally by measuring the growth of each strain in 96-well microplates in the presence of concentrations of antibiotic by absorbance.
The MIC was measured in Mueller-Hinton medium (MH; reference medium for antibiotic susceptibility testing) and brain heart infusion (BHI) medium.

[3] = tested on: Staphylococcus aureus strains S14 and S39; experiment: MIC of cloxacillin (medium not stated); settings: for MIC: Staphylococcus aureus
Procedure: as §1

[4] = tested on: clinical strains of Staphylococcus aureus; experiment: Antibiofilmogram / BioFilm Ring Test: biofilm minimum inhibitory concentration (MICb); settings: for MIC: Staphylococcus aureus; for MIC / MIC b: 4 h, BHI medium
Procedure: To determine and measure the effect of cloxacillin on biofilm formation, specifically bacterial adhesion, the first step in biofilm formation, Staphylococcus aureus strains S14 and S39 were incubated in the wells of a 96-well microplate in the presence of varying concentrations of cloxacillin. The concentrations tested ranged from 0.25 μg/mL to 32 μg/mL cloxacillin. This test is called, by BioFilm Control, an Antibiofilmogram®. The inoculum of bacteria was 4·10^6 bacteria/mL, in 200 μL brain heart infusion (BHI) medium, in the presence of magnetic microbeads (Toner 4, product code TON004) at a concentration of 2 μL per 200 μL, i.e. 10 μL/mL).
The microplate was incubated for 4 hat 37° C., then covered with 120 μL of contrast liquid (Contrast liquid; product code LIC001) and placed for 1 minute on a magnet block (product code BKTMB) designed so that each mini-magnet is centered with respect to the 96 wells. The microplate was then placed on a scanner and the image was acquired and analyzed by the BFCE3 software which quantifies the aggregation of the magnetic microbeads in the center of the wells and provides a biofilm formation index (BFI) value. A BFI value of 20, or close to 20 corresponds to maximum aggregation, therefore no biofilm formation, and therefore cloxacillin anti-adhesion efficacy. […] All intermediate values, allowing a quantitative measurement of the efficacy of cloxacillin are possible.
The experimental procedure and protocol were as described above.
The measurement of the MICb (determination of the biofilm minimum inhibitory concentration), using the BioFilm Ring ^Test® was performed in BHI medium. The conversion in mg/kg. The results are summarized in Table 1 according to the strains tested.

Cc1onc(-c2ccccc2Cl)c1C(=O)N[C@@H]1C(=O)N2[C@@H]1SC(C)(C)[C@@H]2C(=O)O [cloxacillin]
effect on adhesion / biofilm formation ([1]; strain S14, MIC dose (0.25 μg/mL)): allows a decrease in bacterial adhesion but does not inhibit it; also recorded: did not inhibit the adhesion
bottom surface of the well covered by bacteria ([1]; strain S14, MIC dose (0.25 μg/mL), 4 h incubation): 10%
effect on adhesion / biofilm formation ([1]; strain S14, MICb dose (2 μg/mL)): completely inhibit the adhesion
effect on adhesion / biofilm formation ([1]; strain S14, sub-MIC dose (0.125 μg/mL, 0.5 MIC)): no effect on biofilm formation; also recorded: did not inhibit the adhesion
effect on adhesion / biofilm formation ([1]; strain S14, sub-MICb dose (1 μg/mL)): completely inhibit the adhesion
effect on bacterial adhesion ([1]; MIC dose (0.125 μg/mL)): no effect on bacterial adhesion
effect on bacterial adhesion ([1]; MICb dose (6 μg/mL)): completely inhibit the adhesion
effect on bacterial adhesion ([1]; sub-MIC dose (1/2 MIC)): no effect on bacterial adhesion
effect on bacterial adhesion ([1]; sub-MICb dose (3 μg/mL)): completely inhibit the adhesion
MIC ([2]; strain S02): 0.25 µg/mL
MIC ([2]; strain S04): 0.5 µg/mL
MIC ([2]; strain S08): 0.5 µg/mL
MIC ([2]; strain S11): 0.5 µg/mL
MIC ([2]; strain S14): 0.25 µg/mL
MIC ([2]; strain S16): 0.5 µg/mL
MIC ([2]; strain S19): 0.5 µg/mL
MIC ([2]; strain S21): 0.5 µg/mL
MIC ([2]; strain S22): 0.5 µg/mL
MIC ([2]; strain S26): 0.25 µg/mL
MIC ([2]; strain S27): 0.25 µg/mL
MIC ([2]; strain S31): 0.5 µg/mL
MIC ([2]; strain S34): 0.5 µg/mL
MIC ([2]; strain S38): 0.5 µg/mL
MIC ([2]; strain S39): 0.125 µg/mL
MIC ([2]; strain S40): 0.5 µg/mL
MIC ([2]; strain S43): 0.25 µg/mL
MIC ([2]; strain S44): 0.5 µg/mL
MIC ([2]; strain S46): 0.125 µg/mL
MIC ([2]; strain S47): 0.25 µg/mL
MIC ([2]; strain S51): 0.25 µg/mL
MIC ([2]; strain S58): 0.25 µg/mL
MIC ([2]; strain S62): 0.5 µg/mL
MIC ([2]; strain S63): 0.25 µg/mL
MIC ([2]; strain S74): 0.25 µg/mL
MIC ([2]; strain S83): 0.125 µg/mL
MIC ([3]; strain S14, read-out: minimum inhibitory concentration (MIC)): 0.25 µg/mL
MIC ([3]; strain S39, read-out: minimum inhibitory concentration (MIC)): 0.125 µg/mL
minimum inhibitory concentration (MIC) ([3]; strain S14): 0.125 µg/mL
minimum inhibitory concentration (MIC) ([3]; strain S39): 0.25 µg/mL
MIC ([4]; strain S02): 2 µg/mL (≈ 4.59 µM)
MIC ([4]; strain S04): 4 µg/mL (≈ 9.18 µM)
MIC ([4]; strain S08): 2 µg/mL (≈ 4.59 µM)
MIC ([4]; strain S11): 4 µg/mL (≈ 9.18 µM)
MIC ([4]; strain S14): 2 µg/mL (≈ 4.59 µM)
MIC ([4]; strain S16): 4 µg/mL (≈ 9.18 µM)
MIC ([4]; strain S19): 2 µg/mL (≈ 4.59 µM)
MIC ([4]; strain S21): 4 µg/mL (≈ 9.18 µM)
MIC ([4]; strain S22): 4 µg/mL (≈ 9.18 µM)
MIC ([4]; strain S26): 4 µg/mL (≈ 9.18 µM)
MIC ([4]; strain S27): 4 µg/mL (≈ 9.18 µM)
MIC ([4]; strain S31): 4 µg/mL (≈ 9.18 µM)
MIC ([4]; strain S34): 8 µg/mL (≈ 18.4 µM)
MIC ([4]; strain S38): 16 µg/mL (≈ 36.7 µM)
MIC ([4]; strain S39): 8 µg/mL (≈ 18.4 µM)
MIC ([4]; strain S40): 4 µg/mL (≈ 9.18 µM)
MIC ([4]; strain S43): 4 µg/mL (≈ 9.18 µM)
MIC ([4]; strain S44): 4 µg/mL (≈ 9.18 µM)
MIC ([4]; strain S46): 2 µg/mL (≈ 4.59 µM)
MIC ([4]; strain S47): 2 µg/mL (≈ 4.59 µM)
MIC ([4]; strain S51): 4 µg/mL (≈ 9.18 µM)
MIC ([4]; strain S58): 16 µg/mL (≈ 36.7 µM)
MIC ([4]; strain S62): 8 µg/mL (≈ 18.4 µM)
MIC ([4]; strain S63): 8 µg/mL (≈ 18.4 µM)
MIC ([4]; strain S74): 4 µg/mL (≈ 9.18 µM)
MIC ([4]; strain S83): 16 µg/mL (≈ 36.7 µM)
mean MICb ([4]; panel of 26 strains, standard deviation 4.2 μg/mL): 5.5 µg/mL
MIC b ([4]; strain S02): 2 µg/mL (≈ 4.59 µM)
MIC b ([4]; strain S14): 2 µg/mL (≈ 4.59 µM)
MIC b ([4]; strain S38): 16 µg/mL (≈ 36.7 µM)
MIC b ([4]; strain S39): 6 µg/mL and 4 to 6 µg/mL and 4 µg/mL
MIC b ([4]; strain S58): 16 µg/mL (≈ 36.7 µM)
MIC b ([4]; strain S83): 16 µg/mL (≈ 36.7 µM)
